Marks after values point to notes of the source that are not given here.
Details: pH 2.3

Log P | SMILES
3.84 | CCOC(=O)C(C#N)=C(NC1CCCCC1C)c1cccnc1Cl (centres unmarked) [Compound 1066]
1.14 | COC(=O)C(C#N)=C(NCC(N)=O)c1cccnc1Cl [Compound 569]
1.57^[c]; 1.57^[b] | COC(=O)C(C#N)=C(NCc1ncccn1)c1cccnc1Cl [Compound 13]

SMILES | Log P
CCNC(=O)C(C#N)=C(Nc1ccccc1SC)c1cccnc1Cl [Compound 1616] | 2.85
CCOC(=O)C(C#N)=C(Nc1cccc(F)c1OC)c1cccnc1Cl [Compound 1611] | 3.13^[c]; 3.13^[b]

Same assay, conditions: pH 2.7

SMILES | Log P
CCOC(=O)C(C#N)=C(NC(C)(C)C(=O)OC)c1cn(C)nc1C(F)F [Compound 696] | 2.51^[a]
CC1CC(NC(=O)C(C#N)=C(NC(C)C(C)C)c2cccnc2Cl)C1 (centres unmarked) [Compound 1512] | 4.01^[a]
CCOC(=O)C(C#N)=C(NCC(N)=O)c1cn(C)nc1C(F)F [Compound 1255] | 2.1^[a]
CC(C)C(C)NC(=C(C#N)C(=O)N1CCOCC1)c1cccnc1Cl (centres unmarked) [Compound 1518] | 2.58^[a]
COC(=O)CNC(=O)C(C#N)=C(NC(C)c1nccs1)c1cccnc1Cl (centres unmarked) [Compound 1596] | 1.9^[a]
CCOC(=O)C(C#N)=C(NC(C)Cc1ccccn1)c1cccnc1Cl (mixture of isomers) [Compound 295] | 1.82^[a]
C=CCNC(=O)C(C#N)=C(NC(C)c1ccccn1)c1cn(C)nc1C(F)F (racemic) [Compound 1291] | 2.02^[a]
COC(=O)C(C#N)=C(Nc1cccc(SC)c1)c1sc(C)nc1C(F)(F)F [Compound 504] | 3.53^[a]
COC(=O)C(C#N)=C(NC(C)C(=O)Nc1ccc2ccccc2c1)c1sc(C)nc1C(F)(F)F (racemic) [Compound 661] | 3.69^[a]
CCOC(=O)C(C#N)=C(NC(C)c1nccs1)c1ccnn1C(F)F (centres unmarked) [Compound 1644] | 2.51^[a]
CCOC(=O)C(C#N)=C(NC(c1cc2ccccc2s1)C(F)(F)F)c1sccc1Cl (racemic) [Compound 162] | 4.89^[a]
CCOC(=O)C(C#N)=C(NCc1nccs1)c1ccncc1Cl [Compound 259] | 2.11^[a]
COCC#CC(C)(C)NC(=C(C#N)C(=O)OC)c1sc(C)nc1C(F)(F)F [Compound 1100] | 3.06^[a]
CCOC(=O)C(C#N)=C(NCc1nc2ccccc2s1)c1sc(C)nc1C(F)(F)F [Compound 197] | 3.48^[a]
CCOC(=O)C(C#N)=C(NC(C)C(=O)Nc1ccc2ccccc2c1)c1cccnc1Cl (centres unmarked) [Compound 1193] | 3.51^[a]
CC(NC(=C(C#N)C(=O)N1CCOCC1)c1cccnc1Cl)c1nccs1 (centres unmarked) [Compound 1595] | 1.84^[a]
CCOC(=O)C(C#N)=C(NC(C)C(C)C)c1ccncc1Br (centres unmarked) [Compound 996] | 3.33^[a]
CCOC(=O)C(C#N)=C(NCc1nccs1)c1c(C(F)F)nn(C)c1Cl [Compound 236] | 2.4^[a]

Second part, the compound after the results:

Log P | SMILES
3.84^[a] | CCOC(=O)C(C#N)=C(NC(C)C(C)C)c1cn(C)cc1C(F)(F)F (racemic) [Compound 987]
2.45^[a] | CCCC(CO)NC(=C(C#N)C(=O)OCC)c1cccnc1Cl (centres unmarked) [Compound 1368]
3.02^[a] | C#CC(C)(C)NC(=C(C#N)C(=O)OCC)c1cn(C)nc1C(F)(F)F [Compound 1031]
1.11^[a] | CCOC(=O)C(C#N)=C(NC(C)CN)c1cn(C)nc1C(F)(F)F (centres unmarked) [Compound 632]
4.21^[a] | CCCC(C)NC(=C(C#N)C(=O)OCC)c1sccc1C(F)(F)F (centres unmarked) [Compound 865]
3.15^[a] | CCC(NC(=C(C#N)C(=O)OC)c1cccnc1Cl)c1ccccc1OC (centres unmarked) [Compound 391]
2.13^[a] | CCOC(=O)C(C#N)=C(NC(C)C(N)=O)c1sccc1C(F)(F)F (racemic) [Compound 660]
2.84^[a] | COC(=O)C(C#N)=C(NC(C)c1ccccc1OC)c1cccnc1Cl (centres unmarked) [Compound 392]
3.15^[a] | CCOC(=O)C(C#N)=C(NC(CC)CC)c1cn(C)nc1C(F)F [Compound 1338]
3.37^[a] | CCOC(=O)C(C#N)=C(NC(C)c1nc(C2CC2)cs1)c1cccnc1Cl (centres unmarked) [Compound 1416]
2.62^[a] | CCOC(=O)C(C#N)=C(NC(C)C(=O)OCC)c1cn(C)nc1C(F)F (centres unmarked) [Compound 686]
3.79^[a] | CCOC(=O)C(C#N)=C(NC1CCC1)c1cc(Cl)cc(Cl)n1 [Compound 801]
2.82^[a] | CCOC(=O)C(C#N)=C(NC1CCC1)c1cnn(C)c1Cl [Compound 1487]
2.23^[a] | CCOC(=O)C(C#N)=C(NC(C)CF)c1cn(C)nc1OC (centres unmarked) [Compound 748]
3.44^[a] | CCNC(=O)C(C#N)=C(NC(C)C(C)C)c1ccnc(Cl)c1F (centres unmarked) [Compound 1316]
3.92^[a] | CCOC(=O)C(C#N)=C(NC(C)C1CCCCC1)c1cn(C)nc1C(F)F (centres unmarked) [Compound 872]

Log P | SMILES
3.46^[a] | CCOC(=O)C(C#N)=C(NC(C)CC(C)C)c1cn(C)nc1C(F)F (racemic) [Compound 780]
2.41^[a] | CCOC(=O)C(C#N)=C(NC(C)c1ccccn1)c1cnn(C)c1C(F)F (centres unmarked) [Compound 1300]
1.72^[a] | COC(=O)C(C#N)=C(NCc1nccs1)c1cn(C)nc1C(F)F [Compound 67]
5.41^[a] | CCCCCCC(C)NC(=C(C#N)C(=O)OCC)c1ccsc1Br (racemic) [Compound 820]
3.2^[a] | CCOC(=O)C(C#N)=C(NC(C)c1nc(C(C)C)no1)c1cccnc1Cl (mixture of isomers) [Compound 282]
3.02^[a] | CCOc1ccc(C(C)NC(=C(C#N)C(=O)OC)c2cccnc2Cl)cc1 (centres unmarked) [Compound 378]
3.11^[a] | CCOC(=O)C(C#N)=C(NC(C)c1ccccn1)c1ccnc(Br)c1Br (racemic) [Compound 1409]
3.09^[a] | COC(=O)C(C#N)=C(NC(C)c1ncc(C)s1)c1sc(C)nc1C(F)(F)F (racemic) [Compound 182]
3.04^[a] | COC(=O)C(C#N)=C(NC(C)c1nc(C)cs1)c1sc(C)nc1C(F)(F)F (racemic) [Compound 180]
3.11^[a] | CCOC(=O)C(C#N)=C(NC(C)COC)c1sc(C)nc1C(F)(F)F (racemic) [Compound 678]
1.81^[a] | CCOC(=O)C(C#N)=C(NC(C)C(=O)NC)c1scnc1Cl (centres unmarked) [Compound 1476]
2.92^[a] | CCOC(=O)C(C#N)=C(NC(C)c1cscn1)c1ccnc(Cl)c1Cl (mixture of isomers) [Compound 290]
3.92^[a] | CCOC(=O)C(C#N)=C(NC(C)C(C)C)c1ccnc(Cl)c1Cl (centres unmarked) [Compound 994]
3.93^[a] | CCOC(=O)C(C#N)=C(NC(C)C(C)C)c1c(C(F)(F)F)nn(C)c1F (centres unmarked) [Compound 999]
4.39^[a] | CCOC(=O)C(C#N)=C(NC(C)C1CC2CCC1C2)c1cccnc1Cl (centres unmarked) [Compound 1177]
4.13^[a] | CCOC(=O)C(C#N)=C(NC(C)COc1cccc(C(F)(F)F)c1)c1cccnc1Cl (centres unmarked) [Compound 1160]

Same assay, conditions: pH 7.5

SMILES | Log P
C#CCOC(=O)C(C#N)=C(NC(C)c1nccs1)c1cccnc1Cl (racemic) [Compound 267] | 2.26
CCNC(=O)C(C#N)=C(Nc1ccccc1SC)c1cccnc1Cl [Compound 1616] | 2.82
CCOC(=O)C(C#N)=C(Nc1cccc(F)c1OC)c1cccnc1Cl [Compound 1611] | 3.13^[c]; 3.13^[b]
COC(=O)C(C#N)=C(NCC(N)=O)c1cccnc1Cl [Compound 569] | 0.94
COC(=O)C(C#N)=C(NCc1ncccn1)c1cccnc1Cl [Compound 13] | 1.57^[c]; 1.57^[b]

Continued, values first:

Log P | SMILES
3.7 | CCOC(=O)C(C#N)=C(NC1CCCCC1C)c1cccnc1Cl (centres unmarked) [Compound 1066]
3.63 | CCOC(=O)C(C#N)=C(NC(C)c1ccc(Cl)cc1)c1cccnc1Cl (centres unmarked) [Compound 345]
